Source: ChEMBL document CHEMBL4507266, “Data for DCP probe BAY-784” (2021)

Key:
[1] = molecular target: Serine/threonine-protein kinase TAO1 (Homo sapiens) (UniProt Q7L7X3); conditions: Compound concentration 1000.0 nM
[2] = molecular target: Serine/threonine-protein kinase 36 (Homo sapiens) (UniProt Q9NRP7); conditions: Compound concentration 1000.0 nM
[3] = molecular target: Serine/threonine-protein kinase MARK2 (Homo sapiens) (UniProt Q7KZI7); conditions: Compound concentration 1000.0 nM
[4] = molecular target: Serine/threonine-protein kinase Nek9 (Homo sapiens) (UniProt Q8TD19); conditions: Compound concentration 1000.0 nM
[5] = molecular target: Insulin receptor-related protein (Homo sapiens) (UniProt P14616); conditions: Compound concentration 1000.0 nM
[6] = molecular target: Dual specificity protein kinase CLK1 (Homo sapiens) (UniProt P49759); conditions: Compound concentration 1000.0 nM
[7] = molecular target: Non-receptor tyrosine-protein kinase TYK2 (Homo sapiens) (UniProt P29597); conditions: Compound concentration 1000.0 nM
[8] = molecular target: Serine/threonine-protein kinase 17B (Homo sapiens) (UniProt O94768); conditions: Compound concentration 1000.0 nM
[9] = molecular target: Beta-1 adrenergic receptor (Homo sapiens) (UniProt P08588); conditions: Compound concentration 10.0 uM
[10] = molecular target: Insulin receptor (Homo sapiens) (UniProt P06213); conditions: Compound concentration 1000.0 nM
[11] = molecular target: Tyrosine-protein kinase Fgr (Homo sapiens) (UniProt P09769); conditions: Compound concentration 1000.0 nM
[12] = molecular target: Ephrin type-B receptor 6 (Homo sapiens) (UniProt O15197); conditions: Compound concentration 1000.0 nM
[13] = molecular target: Receptor-interacting serine/threonine-protein kinase 4 (Homo sapiens) (UniProt P57078); conditions: Compound concentration 1000.0 nM
[14] = system: Tyrosine-protein kinase ABL1 (Homo sapiens), P00519 [Q252H]; conditions: Compound concentration 1000.0 nM
[15] = molecular target: Mitogen-activated protein kinase kinase kinase 10 (Homo sapiens) (UniProt Q02779); conditions: Compound concentration 1000.0 nM
[16] = molecular target: Platelet-derived growth factor receptor beta (Homo sapiens) (UniProt P09619); conditions: Compound concentration 1000.0 nM
[17] = molecular target: Casein kinase II subunit alpha (Homo sapiens) (UniProt P68400); conditions: Compound concentration 1000.0 nM
[18] = molecular target: Serine/threonine-protein kinase tousled-like 1 (Homo sapiens) (UniProt Q9UKI8); conditions: Compound concentration 1000.0 nM
[19] = molecular target: Phosphatidylinositol 5-phosphate 4-kinase type-2 beta (Homo sapiens) (UniProt P78356); conditions: Compound concentration 1000.0 nM
[20] = molecular target: Ribosomal protein S6 kinase alpha-6 (Homo sapiens) (UniProt Q9UK32); conditions: Compound concentration 1000.0 nM
[21] = molecular target: Phosphatidylinositol 4-kinase beta (Homo sapiens) (UniProt Q9UBF8); conditions: Compound concentration 1000.0 nM
[22] = molecular target: Mitogen-activated protein kinase kinase kinase 20 (Homo sapiens) (UniProt Q9NYL2); conditions: Compound concentration 1000.0 nM
[23] = molecular target: T1, Muscarinic acetylcholine receptor M2 (Homo sapiens) (UniProt P08172); conditions: Compound concentration 10.0 uM
T1 sequence (whole entry): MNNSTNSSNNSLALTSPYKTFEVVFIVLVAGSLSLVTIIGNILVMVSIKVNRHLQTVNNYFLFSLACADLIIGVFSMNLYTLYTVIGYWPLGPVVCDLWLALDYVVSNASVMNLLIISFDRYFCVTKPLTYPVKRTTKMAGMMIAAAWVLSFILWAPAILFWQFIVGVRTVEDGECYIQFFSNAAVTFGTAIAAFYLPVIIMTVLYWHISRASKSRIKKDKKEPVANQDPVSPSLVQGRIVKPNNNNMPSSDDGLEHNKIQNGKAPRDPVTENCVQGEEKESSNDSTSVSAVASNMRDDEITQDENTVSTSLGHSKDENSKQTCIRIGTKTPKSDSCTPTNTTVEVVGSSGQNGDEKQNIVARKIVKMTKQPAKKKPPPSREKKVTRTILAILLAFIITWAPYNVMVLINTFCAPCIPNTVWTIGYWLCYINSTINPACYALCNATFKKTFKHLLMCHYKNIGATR

[24] = molecular target: Mitogen-activated protein kinase 4 (Homo sapiens) (UniProt P31152); conditions: Compound concentration 1000.0 nM
[25] = molecular target: Cyclin-dependent kinase 4 (Homo sapiens) (UniProt P11802); conditions: Compound concentration 1000.0 nM
[26] = system: Phosphatidylinositol 4,5-bisphosphate 3-kinase catalytic subunit alpha isoform (Homo sapiens), P42336 [E545A]; conditions: Compound concentration 1000.0 nM
[27] = molecular target: Mitogen-activated protein kinase 10 (Homo sapiens) (UniProt P53779); conditions: Compound concentration 1000.0 nM
[28] = molecular target: Cyclin-dependent kinase 14 (Homo sapiens) (UniProt O94921); conditions: Compound concentration 1000.0 nM
[29] = molecular target: Tyrosine-protein kinase BTK (Homo sapiens) (UniProt Q06187); conditions: Compound concentration 1000.0 nM
[30] = molecular target: Dual specificity mitogen-activated protein kinase kinase 4 (Homo sapiens) (UniProt P45985); conditions: Compound concentration 1000.0 nM
[31] = molecular target: Inhibitor of nuclear factor kappa-B kinase subunit beta (Homo sapiens) (UniProt O14920); conditions: Compound concentration 1000.0 nM
[32] = molecular target: Insulin-like growth factor 1 receptor (Homo sapiens) (UniProt P08069); conditions: Compound concentration 1000.0 nM
[33] = molecular target: MAP/microtubule affinity-regulating kinase 4 (Homo sapiens) (UniProt Q96L34); conditions: Compound concentration 1000.0 nM
[34] = system: Tyrosine-protein kinase ABL1 (Homo sapiens), P00519 [F317I]; conditions: Compound concentration 1000.0 nM
[35] = molecular target: Casein kinase I isoform alpha (Homo sapiens) (UniProt P48729); conditions: Compound concentration 1000.0 nM
[36] = system: Tyrosine-protein kinase ABL1 (Homo sapiens), P00519 [T315I]; conditions: Compound concentration 1000.0 nM
[37] = molecular target: ALK tyrosine kinase receptor (Homo sapiens) (UniProt Q9UM73); conditions: Compound concentration 1000.0 nM
[38] = molecular target: Myosin light chain kinase, smooth muscle (Homo sapiens) (UniProt Q15746); conditions: Compound concentration 1000.0 nM
[39] = molecular target: Phosphatidylinositol 4,5-bisphosphate 3-kinase catalytic subunit alpha isoform (Homo sapiens) (UniProt P42336); conditions: Compound concentration 1000.0 nM

Mitogen-activated protein kinase 10 (Homo sapiens), sequence (P53779 whole entry): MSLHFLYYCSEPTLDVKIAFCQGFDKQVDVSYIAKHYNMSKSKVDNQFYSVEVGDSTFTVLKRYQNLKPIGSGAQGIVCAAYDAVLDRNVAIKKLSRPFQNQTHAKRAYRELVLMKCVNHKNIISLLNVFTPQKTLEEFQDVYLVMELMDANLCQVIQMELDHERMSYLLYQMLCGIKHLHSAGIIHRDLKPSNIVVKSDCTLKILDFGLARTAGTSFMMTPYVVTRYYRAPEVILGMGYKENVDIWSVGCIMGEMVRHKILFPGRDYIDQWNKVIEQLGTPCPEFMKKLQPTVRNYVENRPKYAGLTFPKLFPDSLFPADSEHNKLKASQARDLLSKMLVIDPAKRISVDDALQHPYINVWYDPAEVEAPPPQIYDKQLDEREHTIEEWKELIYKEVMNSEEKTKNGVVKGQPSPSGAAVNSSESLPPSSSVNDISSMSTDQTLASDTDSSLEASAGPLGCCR
Cyclin-dependent kinase 4 (Homo sapiens), sequence (P11802 whole entry, canonical isoform): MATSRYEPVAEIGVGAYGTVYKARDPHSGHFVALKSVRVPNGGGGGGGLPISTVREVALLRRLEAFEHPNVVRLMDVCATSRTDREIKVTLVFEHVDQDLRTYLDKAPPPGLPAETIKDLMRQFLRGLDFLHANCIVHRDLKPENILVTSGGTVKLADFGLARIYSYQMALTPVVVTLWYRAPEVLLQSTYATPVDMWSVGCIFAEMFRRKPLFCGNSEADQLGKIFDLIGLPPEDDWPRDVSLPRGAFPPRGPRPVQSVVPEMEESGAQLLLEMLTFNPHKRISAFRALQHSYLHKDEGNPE
Tyrosine-protein kinase BTK (Homo sapiens), sequence (Q06187 whole entry): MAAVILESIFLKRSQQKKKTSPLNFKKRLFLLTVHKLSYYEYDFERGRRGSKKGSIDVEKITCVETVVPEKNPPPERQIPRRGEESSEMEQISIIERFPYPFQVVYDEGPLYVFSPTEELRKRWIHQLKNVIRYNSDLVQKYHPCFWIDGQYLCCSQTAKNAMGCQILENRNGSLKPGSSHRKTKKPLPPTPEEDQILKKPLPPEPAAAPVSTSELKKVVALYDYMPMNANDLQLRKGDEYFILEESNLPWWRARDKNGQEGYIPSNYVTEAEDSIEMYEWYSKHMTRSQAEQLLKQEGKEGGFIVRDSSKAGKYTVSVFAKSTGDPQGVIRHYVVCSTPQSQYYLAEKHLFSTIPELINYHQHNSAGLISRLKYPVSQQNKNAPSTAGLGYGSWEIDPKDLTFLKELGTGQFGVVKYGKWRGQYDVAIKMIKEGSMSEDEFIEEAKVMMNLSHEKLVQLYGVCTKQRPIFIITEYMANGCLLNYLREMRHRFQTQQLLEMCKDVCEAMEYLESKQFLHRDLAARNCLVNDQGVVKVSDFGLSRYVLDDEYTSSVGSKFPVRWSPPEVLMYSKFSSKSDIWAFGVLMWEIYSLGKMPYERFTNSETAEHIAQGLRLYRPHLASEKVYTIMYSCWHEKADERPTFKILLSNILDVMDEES
Platelet-derived growth factor receptor beta (Homo sapiens), sequence (P09619 whole entry): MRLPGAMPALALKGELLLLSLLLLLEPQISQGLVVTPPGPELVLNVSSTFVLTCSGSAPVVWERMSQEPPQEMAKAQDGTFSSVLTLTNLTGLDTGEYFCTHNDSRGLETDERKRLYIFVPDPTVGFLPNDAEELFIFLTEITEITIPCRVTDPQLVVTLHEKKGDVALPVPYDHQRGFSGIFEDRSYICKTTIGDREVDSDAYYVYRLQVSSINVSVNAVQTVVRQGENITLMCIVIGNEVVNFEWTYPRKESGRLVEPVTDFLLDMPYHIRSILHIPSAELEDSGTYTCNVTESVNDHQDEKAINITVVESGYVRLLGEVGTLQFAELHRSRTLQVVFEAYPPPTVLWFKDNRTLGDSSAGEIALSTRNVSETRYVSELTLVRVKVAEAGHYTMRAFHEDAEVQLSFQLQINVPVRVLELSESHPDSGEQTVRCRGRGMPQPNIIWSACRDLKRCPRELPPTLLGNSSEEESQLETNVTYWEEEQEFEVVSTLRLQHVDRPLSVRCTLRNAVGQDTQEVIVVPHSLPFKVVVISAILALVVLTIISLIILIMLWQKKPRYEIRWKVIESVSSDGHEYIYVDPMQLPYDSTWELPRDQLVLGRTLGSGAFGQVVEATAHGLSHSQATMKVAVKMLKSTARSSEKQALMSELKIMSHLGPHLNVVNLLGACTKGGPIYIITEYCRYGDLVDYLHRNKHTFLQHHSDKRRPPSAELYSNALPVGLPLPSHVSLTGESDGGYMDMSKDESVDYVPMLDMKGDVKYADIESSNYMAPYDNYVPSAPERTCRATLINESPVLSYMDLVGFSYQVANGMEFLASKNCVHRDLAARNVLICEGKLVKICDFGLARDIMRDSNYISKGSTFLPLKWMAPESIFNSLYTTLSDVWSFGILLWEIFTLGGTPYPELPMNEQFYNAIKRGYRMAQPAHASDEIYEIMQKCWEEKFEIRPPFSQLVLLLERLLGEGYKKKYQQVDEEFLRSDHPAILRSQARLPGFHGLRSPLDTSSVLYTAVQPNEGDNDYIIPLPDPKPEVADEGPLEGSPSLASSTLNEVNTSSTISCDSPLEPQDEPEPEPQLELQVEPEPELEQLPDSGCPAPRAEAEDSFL
MAP/microtubule affinity-regulating kinase 4 (Homo sapiens), sequence (Q96L34 whole entry): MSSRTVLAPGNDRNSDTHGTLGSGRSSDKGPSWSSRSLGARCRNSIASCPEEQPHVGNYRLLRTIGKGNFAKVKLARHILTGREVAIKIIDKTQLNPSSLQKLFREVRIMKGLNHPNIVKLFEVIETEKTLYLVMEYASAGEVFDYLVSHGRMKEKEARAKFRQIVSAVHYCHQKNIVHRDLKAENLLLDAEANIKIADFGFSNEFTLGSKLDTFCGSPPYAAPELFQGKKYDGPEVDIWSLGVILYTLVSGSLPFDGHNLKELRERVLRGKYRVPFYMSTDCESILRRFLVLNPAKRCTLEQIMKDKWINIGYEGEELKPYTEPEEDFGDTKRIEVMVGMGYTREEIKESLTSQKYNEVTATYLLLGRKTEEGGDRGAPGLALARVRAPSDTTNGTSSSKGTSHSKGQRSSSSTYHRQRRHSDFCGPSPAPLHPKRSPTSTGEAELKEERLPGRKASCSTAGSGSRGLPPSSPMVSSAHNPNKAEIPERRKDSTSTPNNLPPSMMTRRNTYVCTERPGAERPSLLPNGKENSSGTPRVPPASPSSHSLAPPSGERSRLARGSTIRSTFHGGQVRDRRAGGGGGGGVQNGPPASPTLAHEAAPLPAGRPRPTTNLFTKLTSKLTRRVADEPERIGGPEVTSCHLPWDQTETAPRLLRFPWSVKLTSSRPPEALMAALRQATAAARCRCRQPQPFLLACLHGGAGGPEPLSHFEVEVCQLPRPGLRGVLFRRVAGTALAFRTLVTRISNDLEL
Inhibitor of nuclear factor kappa-B kinase subunit beta (Homo sapiens), sequence (O14920 whole entry): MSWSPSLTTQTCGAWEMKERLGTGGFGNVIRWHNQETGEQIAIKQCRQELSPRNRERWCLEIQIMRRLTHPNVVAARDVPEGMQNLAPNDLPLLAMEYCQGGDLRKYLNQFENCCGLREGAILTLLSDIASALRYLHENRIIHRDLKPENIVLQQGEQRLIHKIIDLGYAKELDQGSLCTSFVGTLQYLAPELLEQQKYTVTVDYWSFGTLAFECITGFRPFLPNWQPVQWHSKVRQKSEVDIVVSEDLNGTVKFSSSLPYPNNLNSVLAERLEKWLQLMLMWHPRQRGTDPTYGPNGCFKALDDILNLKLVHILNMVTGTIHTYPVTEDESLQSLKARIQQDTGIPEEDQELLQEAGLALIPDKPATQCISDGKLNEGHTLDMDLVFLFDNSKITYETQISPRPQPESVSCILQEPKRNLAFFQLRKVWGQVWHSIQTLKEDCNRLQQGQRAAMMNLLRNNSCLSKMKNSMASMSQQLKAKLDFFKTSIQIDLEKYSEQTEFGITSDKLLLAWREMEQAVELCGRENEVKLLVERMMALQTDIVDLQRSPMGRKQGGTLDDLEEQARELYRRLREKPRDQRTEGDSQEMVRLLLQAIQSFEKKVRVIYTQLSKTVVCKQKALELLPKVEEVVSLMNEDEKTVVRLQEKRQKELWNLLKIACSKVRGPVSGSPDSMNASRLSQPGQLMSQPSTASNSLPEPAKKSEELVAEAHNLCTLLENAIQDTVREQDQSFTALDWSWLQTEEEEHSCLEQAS
Receptor-interacting serine/threonine-protein kinase 4 (Homo sapiens), sequence (P57078 whole entry): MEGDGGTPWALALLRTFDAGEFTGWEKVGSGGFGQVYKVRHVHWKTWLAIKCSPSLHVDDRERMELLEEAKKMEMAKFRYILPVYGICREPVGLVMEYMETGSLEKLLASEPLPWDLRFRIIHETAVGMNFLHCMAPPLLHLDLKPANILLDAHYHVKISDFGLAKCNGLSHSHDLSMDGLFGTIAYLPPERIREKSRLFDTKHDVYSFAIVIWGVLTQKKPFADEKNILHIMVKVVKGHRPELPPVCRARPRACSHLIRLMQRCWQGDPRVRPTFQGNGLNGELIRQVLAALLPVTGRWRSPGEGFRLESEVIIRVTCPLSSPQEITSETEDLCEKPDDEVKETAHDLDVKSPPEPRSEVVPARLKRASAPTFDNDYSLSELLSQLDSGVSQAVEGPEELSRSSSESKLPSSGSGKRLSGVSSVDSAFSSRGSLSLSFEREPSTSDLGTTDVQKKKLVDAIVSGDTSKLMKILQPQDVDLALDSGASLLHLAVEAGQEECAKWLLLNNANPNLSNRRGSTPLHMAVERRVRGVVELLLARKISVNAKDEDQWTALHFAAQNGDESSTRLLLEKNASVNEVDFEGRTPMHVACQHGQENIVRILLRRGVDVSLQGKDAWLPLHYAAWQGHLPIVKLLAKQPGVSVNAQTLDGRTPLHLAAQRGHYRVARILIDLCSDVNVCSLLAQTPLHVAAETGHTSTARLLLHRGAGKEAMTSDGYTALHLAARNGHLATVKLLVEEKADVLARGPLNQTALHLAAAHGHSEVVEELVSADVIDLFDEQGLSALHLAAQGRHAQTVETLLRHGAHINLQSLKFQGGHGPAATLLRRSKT

O=C(NCc1ncc(C(F)(F)F)cc1Cl)c1ccc2c(c1)C1(CCS(=O)(=O)CC1)[C@H](C1CC1)N2S(=O)(=O)c1ccc(F)cc1 [BAY-784]
residual activity [1]: 100%
residual activity [2]: 100%
residual activity [3]: 100%
residual activity [4]: 100%
residual activity [5]: 100%
residual activity [6]: 100%
residual activity [7]: 92%
residual activity [8]: 85%
inhibition [9]: -0.08%
residual activity [10]: 100%
residual activity [11]: 100%
residual activity [12]: 80%
residual activity [13]: 93%
residual activity [14]: 100%
residual activity [15]: 100%
residual activity [16]: 92%
residual activity [17]: 66%
residual activity [18]: 96%
residual activity [19]: 89%
residual activity [20]: 87%
residual activity [21]: 78%
residual activity [22]: 100%
inhibition [23]: 8.38%
residual activity [24]: 91%
residual activity [25]: 93%
residual activity [26]: 89%
residual activity [27]: 88%
residual activity [28]: 100%
residual activity [29]: 64%
residual activity [30]: 75%
residual activity [31]: 92%
residual activity [32]: 100%
residual activity [33]: 100%
residual activity [34]: 83%
residual activity [35]: 92%
residual activity [36]: 90%
residual activity [37]: 98%
residual activity [38]: 77%
residual activity [39]: 100%

O=C(NCc1ncc(C(F)(F)F)cc1Cl)c1ccc2c(c1)C1(CCS(=O)(=O)CC1)[C@@H](C1CC1)N2S(=O)(=O)c1ccc(F)cc1 [BAY-786]
residual activity [1]: 91%
residual activity [2]: 100%
residual activity [3]: 63%
residual activity [4]: 72%
residual activity [5]: 100%
residual activity [6]: 100%
residual activity [7]: 46%
residual activity [8]: 87%
inhibition [9]: -1.82%
residual activity [10]: 100%
residual activity [11]: 93%
residual activity [12]: 94%
residual activity [13]: 72%
residual activity [14]: 100%
residual activity [15]: 100%
residual activity [16]: 77%
residual activity [17]: 67%
residual activity [18]: 100%
residual activity [19]: 89%
residual activity [20]: 100%
residual activity [21]: 100%
residual activity [22]: 92%
inhibition [23]: 12.5%
residual activity [24]: 89%
residual activity [25]: 80%
residual activity [26]: 90%
residual activity [27]: 73%
residual activity [28]: 100%
residual activity [29]: 73%
residual activity [30]: 76%
residual activity [31]: 86%
residual activity [32]: 88%
residual activity [33]: 100%
residual activity [34]: 80%
residual activity [35]: 81%
residual activity [36]: 84%
residual activity [37]: 73%
residual activity [38]: 74%
residual activity [39]: 100%
